This assay concerns the target T1, hDPP III (Homo sapiens, UniProt Q9NY33).
T1 sequence (Q9NY33 1-737): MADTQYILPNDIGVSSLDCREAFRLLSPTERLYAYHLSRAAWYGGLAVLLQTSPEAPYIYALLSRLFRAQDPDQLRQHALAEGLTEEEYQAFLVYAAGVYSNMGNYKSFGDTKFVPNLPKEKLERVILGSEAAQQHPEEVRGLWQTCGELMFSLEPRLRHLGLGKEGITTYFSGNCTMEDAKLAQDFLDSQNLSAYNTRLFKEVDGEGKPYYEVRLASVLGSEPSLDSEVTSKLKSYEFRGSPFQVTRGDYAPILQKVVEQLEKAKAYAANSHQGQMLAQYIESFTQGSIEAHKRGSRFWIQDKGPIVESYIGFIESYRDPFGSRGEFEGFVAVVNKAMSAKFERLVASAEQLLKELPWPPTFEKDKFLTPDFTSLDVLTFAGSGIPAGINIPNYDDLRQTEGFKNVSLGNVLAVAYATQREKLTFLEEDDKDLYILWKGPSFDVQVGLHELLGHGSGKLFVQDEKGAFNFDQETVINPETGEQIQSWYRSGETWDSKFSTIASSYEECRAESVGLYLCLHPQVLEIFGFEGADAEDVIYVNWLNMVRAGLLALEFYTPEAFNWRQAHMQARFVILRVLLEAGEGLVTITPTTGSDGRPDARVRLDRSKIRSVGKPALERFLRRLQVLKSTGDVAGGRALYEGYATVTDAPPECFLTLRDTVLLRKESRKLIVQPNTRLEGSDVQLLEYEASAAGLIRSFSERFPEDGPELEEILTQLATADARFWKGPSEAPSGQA
As to the kind of experiment: biochemical. The procedure: The Km values for hydrolysis of fluorogenic substrate Arg2-2NA were determined at pH 7.4 (20 mM Tris–HCl buffer) and at 25 °C, from the initial reaction rates as previously described.[26]
Enzyme inhibition studies with tynorphin were performed using the Arg2-2NA as a substrate, according to Baršun et al.[36] The inhibition constant, Ki, was calculated according to the equation:1 Ki = i/(v0/vi − 1)·Km/(Km + s)where v0 and vi are the initial hydrolysis rates of Arg2-2NA (given in concentration s) catalyzed by DPP III in the absence and presence of inhibitor concentration (i), and Km is the Michaelis constant.

Residues, ends and D or L forms follow the SMILES beside them.

For orientation: Ki means the dissociation constant of the complex between target and ligand, obtained from inhibition or displacement.

In turn, `CC(C)[C@H](N)C(=O)N[C@H](C(=O)N[C@@H](Cc1ccc(O)cc1)C(=O)N1CCC[C@H]1C(=O)N[C@@H](Cc1c[nH]c2ccccc12)C(=O)O)C(C)C` [tynorphin] (H-VVYPW-OH) had an inhibition constant Ki of 30 nM.

Source of the values: paper PMC9079729, “Conservation of the conformational dynamics and ligand binding within M49 enzyme family” (RSC Advances, 2018).
